From patent publication US8110582B2, “Prophylactic treatment of UV-induced epidermal neoplasia” (3M Innovative Properties Company, priority 2003, dated 2012)

How the values were obtained:
[1] = test system: UV-induced squamous cell carcinoma (SCC), actinic keratosis (AK), or pre-AK lesions; experiment: UV-induced epidermal neoplasia in SKH-1 mice, Example 2 (UV dosing six weeks before IRM dosing, 15 weeks); type: in vivo; details: topical twice per week, UV for six weeks before IRM dosing, UV five days per week for 15 weeks
Excerpt: (§1) Female SKH-1 mice 9-10 weeks old were obtained from Charles River (Raleigh, N.C.) and housed in a room with controlled temperatures and humidity and alternating 12-hour light and dark cycles. The room is lit with fluorescent lights covered by yellow sleeves from EncapSulite International, Inc. (Rosenberg, Tex.) to eliminate all ambient UV radiation. The mice were fed with a 12% Corn Oil Purified Diet from Purina Test Diet (Richmond, Va.) and water, ad libitum. […]
(§2) Mice were placed in a standard plexiglass rat cage, 9-10 at a time, that was separated into 12 individual compartments with plexiglass dividers and placed on a shelf 14 inches below the light source without wire cage tops. […] The lights emit UVB (21%) and UVA (79%) light with a peak wavelength of 313 nm, as measured using a radiometer Model PMA 2200 from Solar Light Company (Philadelphia, Pa.) with a PMA 2101 detector for UVB and PMA2110 detector for UVA.
(§3) The dose of UVB irradiation was measured by MED (minimal erythemal dose). […]
(§4) All mice were distinguished from one another by a tattoo placed on the tail. The development and appearance of tumors were noted weekly and recorded starting at about 14-18 weeks. […]

[2] = test system: UV-induced squamous cell carcinoma (SCC), actinic keratosis (AK), or pre-AK lesions; experiment: UV-induced epidermal neoplasia in SKH-1 mice, Example 1 (UV and IRM dosing initiated simultaneously, 15 weeks); type: in vivo; details: 0.1% formulation in Vehicle 1, topical twice per week, UV five days per week for 15 weeks
Excerpt: as §1, §2, §3, §4

[3] = test system: UV-induced squamous cell carcinoma (SCC), actinic keratosis (AK), or pre-AK lesions; experiment: UV-induced epidermal neoplasia in SKH-1 mice, Example 3 (simultaneous initiation, 18 weeks); type: in vivo; details: for % Disease: topical twice per week, UV five days per week for 18 weeks; for Avg. Disease Score: twice per week, UV 18 weeks, SCC + AK + pre-AK lesion score (Table 5)
Excerpt: Female SKH-1 mice 9-10 weeks old were obtained from Charles River (Raleigh, N.C.) and housed in a room with controlled temperatures and humidity and alternating 12-hour light and dark cycles. The room is lit with fluorescent lights covered by yellow sleeves from EncapSulite International, Inc. (Rosenberg, Tex.) to eliminate all ambient UV radiation. The mice were fed with a 12% Corn Oil Purified Diet from Purina Test Diet (Richmond, Va.) and water, ad libitum. The animals were maintained in facilities approved by the Association for the Assessment and Accreditation of Laboratory Animal Care International and in accordance with current United States Department of Agriculture, Department of Health and Human Services, and National Institutes of Health regulations and standards.
A small group of mice were not exposed to UV and were used as negative controls. The other mice were chronically UV irradiated. After randomization the mice were lightly anesthetized with halothane and adjustable collars made of hook and loop fastener approximately 10 mm wide and 70 mm long were placed around the mouse's neck to prevent oral ingestion of the IRM. Unless otherwise indicated, thirty minutes before UV exposure mice were topically dosed with 30 μL of either (1) vehicle formulation, (2) IRM formulation, or (3) an SPF 30 sunscreen (NEUTROGENA SPF30 Sunblock with PARSOL 1789), two times per week for a total of 15-18 weeks on the dorsal surface in an area approximately 6 cm^2. Approximately four hours after dosing, the topical treatment (i.e, vehicle formulation; IRM formulation, or sunscreen) was washed off using a dilute soap solution.
Mice were placed in a standard plexiglass rat cage, 9-10 at a time, that was separated into 12 individual compartments with plexiglass dividers and placed on a shelf 14 inches below the light source without wire cage tops. The mice were exposed to UV radiation 5 times per week (Monday thru Friday) for an average of 15-18 weeks. The UV radiation was provided by a bank of six FS40 lamps (National Biological Corporation, Twinsburg, Ohio), filtered by a Kodacel filter (140 μm thick K6808 cellulose triacetate film; Eastman Kodak, Rochester, N.Y.) that transmits radiation having a wavelength from about 293 nm to about 400 nm. The Kodacel filter was aged 4-6 hours before use. The lights emit UVB (21%) and UVA (79%) light with a peak wavelength of 313 nm, as measured using a radiometer Model PMA 2200 from Solar Light Company (Philadelphia, Pa.) with a PMA 2101 detector for UVB and PMA2110 detector for UVA.
The dose of UVB irradiation was measured by MED (minimal erythemal dose). By using MED, a relatively constant incident dose of UV was maintained over time. The initial dose of UVB to the mice was 12.6 mJ/cm^2 (0.6 MED) and the average total dose of UVB was 3000-5200 mJ/cm^2. An increase of 10-20% of the MED dose per week was needed due to acclimation of the mice.
All mice were distinguished from one another by a tattoo placed on the tail. The development and appearance of tumors were noted weekly and recorded starting at about 14-18 weeks.
Formulations of IRM1 and IRM2 were prepared using Vehicle 1. UV dosing and IRM dosing were initiated simultaneously. UV dosing was performed five days per week for 18 weeks.
After 18 weeks, the mice were subjected to gross inspection to determine the presence of a disease state, i.e., squamous cell carcinoma (SCC), actinic keratosis (AK), or pre-AK lesions.
The disease state of each mouse was scored by measuring the size and/or number of lesions present on the mouse. SCC lesions and AK lesions of at least 1 mm in diameter were given a score of 1.
The SCC lesion score, AK lesion score, and the pre-AK lesion score (according to Table 5) were added to provide a total disease score for each mouse. Table 6 includes the average disease score for all of the mice in each treatment group.

[4] = test system: cytokines; experiment: Induction of production and secretion of cytokines

Cc1nc2c(N)nc3cccnc3c2n1CC(C)C [IRM2, 2-methyl-1-(2-methylpropyl)-1H-imidazo[4,5-c][1,5]naphthyridin-4-amine]
% Disease ([1]; 0.1% formulation): 63%
% Disease ([1]; 1.0% formulation): 50%
% Disease (percentage of mice exhibiting a disease state) [2]: 11%
% Disease ([3]; 0.01% formulation): 71%
Avg. Disease Score ([3]; 0.01% formulation): 4.86 ± 1.81
% Disease ([3]; 0.1% formulation): 25%
Avg. Disease Score ([3]; 0.1% formulation): 0.6 ± 0.42

CC(C)Cn1cnc2c(=O)[nH]c3ccccc3c21 [non-IRM, 1,5-dihydro-1-(2-methylpropyl)-4H-imidazo[4,5-c]quinolin-4-one]
induction of production and secretion of cytokines [4]: does not induce the production and secretion of cytokines
